Data published in patent US7915304B2, “Phenyl substituted maleimides as medicaments for blocking degenerative tissue damages by inhibiting MPT” (Congenia S.r.l., priority 2006, dated 2011).

Columns and labels:
[1] = test system: permeability transition pore (PTP); assay: Mitochondrial in vitro assay: calcium retention capacity (CRC) of isolated mouse liver mitochondria; assay type: biochemical; conditions: ratio of calcium required to open the PTP with vs without compound, 10 μM Ca2+ pulses at 1 min intervals, compound added 1 min before, 25° C.
Source text: The mitochondrial in vitro assay is based on the characteristics of mitochondrial organelles which allow the study of mitochondrial function in reductive sub-cellular in vitro systems. It is possible to investigate many mitochondrial processes in isolated mitochondrial suspension obtained from different tissues.
The ability of isolated mitochondria to uptake calcium from outside is a direct measure of mitochondrial integrity and functioning. Indeed MPT impairs the ability of mitochondria to upload calcium through specific channels that require an intact organelle structure. The assay takes advantage of this phenomenon to evaluate the ability of the invention compounds to interfere with MPT on isolated mitochondria.
Mitochondria were prepared from the livers of male 129 or C57/B6 mouse weighing 20-25 g. The animals were sacrificed by cervical dislocation. The livers were isolated and placed in ice-cold 0.25 M sucrose, 10 mM Tris-HCl, 0.1 mM ethylene-bis(oxoethylenenitrilo)tetraacetic acid (EGTA), pH 7.4 The livers were rinsed three-four times with ice-cold medium, minced with scissor and passed through a manual Potter homogenizer kept in an ice-water bath. The homogenate was diluted to 50 ml per liver, and unbroken cells and nuclei were sedimented by centrifugation at 900×g in a Beckman Avanti™ J-25 refrigerated centrifuge kept at 4° C. for 10 min. The supernatant was carefully decanted and centrifuged at 7000×g in the same centrifuge for 10 min. The supernatant was discarded and the mitochondrial pellets were carefully resuspended in ice-cold isolation medium and spun as above.
The resulting mitochondrial pellets were resuspended in a small amount of ice-cold isolation medium, and stored on ice. Mitochondria protein content was determined with the biuret assay.
The mitochondrial Ca^2+ retention capacity (CRC) is a sensitive measure of the propensity of mitochondria to open the PTP after Ca^2+ uptake. Since mitochondria are bidirectionally permeable to Ca^2+ owing to the presence of a Ca^2+ uniporter in their inner membrane, the mitochondrial membrane potential (Δψm) is responsible for the Ca^2+ accumulation in the mitochondrial matrix and consequent Ca^2+ gradient. Any drop in Δψm, such as depolarization caused by H^+ influx during PTP opening, is expected to result in a redistribution of Ca^2+ between the intra and extra-mitochondrial spaces, during which Ca^2+ uses all available routes through the mitochondrial membrane.
CRC of mitochondrial preparations was assessed fluorimetrically in the presence of the fluorescent Ca^2+ indicator Calcium Green-5N (excitation-emission: 505-535 nm) with a Perkin-Elmer LS 55 spectrofluorimeter equipped with a magnetic stirrer and thermostatic control set to 25° C. (Ichas, F.; Jouaville, L. S.; Mazat, J. P. Mitochondria are excitable organelles capable of generating and conveying electrical and calcium signal. Cell., 1997, 89, 1145-1153). Calcium Green-5N is a fluorometric probe that is not permeable to membranes and when added to a mitochondrial suspension is able to detect the presence of Ca^2+ in the extra-mitochondrial medium. Mitochondria were loaded with a train of 10 μM Ca^2+ pulses at 1 min intervals. Under these conditions mitochondria took up actively and retained Ca^2+ until a point at which mitochondria underwent a fast process of Ca^2+ release due to the opening of the PTP. The number of calcium pulses (final concentration of calcium) required to open the PTP is the mitochondrial CRC. This Ca^2+ loading protocol thus provides a convenient and sensitive assay for measuring PTP opening and it is used to assess the ability of the compounds of the invention to inhibit PTP opening. Compounds were added directly to the mitochondrial solution 1 min. prior to the start of calcium pulsing and the number of calcium pulses required to open the PTP was determined. […]

[2] = test system: retinal neo-vascularisation; assay: Mouse retinopathy of prematurity (ROP) model of ischemia-induced retinal neo-vascularisation; assay type: in vivo; conditions: ROP mice
Method: Retinal neo-vascularisation was assessed in a mouse retinopathy of prematurity (ROP) model of ischemia-induced retinal neo-vascularisation. In rodents, retinal vascularisation is generally completed by post-natal day 14 (P14). Oxygen treatment during the second week of life partially causes vaso-obliteration of immature retinal vessels around the optic disk and it blocks subsequent vascular development of the deep retinal layers. When oxygen treatment is stopped, the ischemia of the retina triggers abnormal vessel growth, i.e., retinal neovascularisation.
At postnatal day 7 (P7), newborn mice were exposed to 75% O2 for 5 days in an oxygen incubator. […] Oxygen concentration was monitored by an Oxygen Monitor (Miniox III; Catalyst Research, MD). […]
At day 12 (P12) animals were removed from the oxygen exposure chamber and injected intra-vitreously with a Hamilton syringe with compounds or vehicle solution. […] Flat-mounted retinas were photographed by fluorescence microscopy (Zeiss Axioplan Thornwood, N.Y.) and by computer-imaging (KS300, Kontron Electronik GmbH, Germany) retinal images captured. […]
Eyes from the same groups, at p17, were fixed and sections were prepared and stained with hematoxylin and eosin to quantify the amount of endothelial cells developed. […]

[3] = test system: experimental autoimmune encephalomyelitis (EAE); assay: Experimental autoimmune encephalomyelitis (EAE) model of multiple sclerosis; assay type: in vivo, mouse
Source text: Experimental autoimmune encephalomyelitis (EAE) is possibly the best animal model to study demyelinating diseases of the central nervous system (CNS) such as multiple sclerosis (MS) Since the first classical studies EAE has been an invaluable tool for dissecting mechanisms of the immune response against self-antigens within the CNS, as well as to test new therapies for the treatment of autoimmune diseases. Rodents are susceptible to EAE. Depending upon species, antigens and mode of sensitisation, EAE can have a monophasic acute course or a chronic relapsing, and even a primarily progressive course that mimics human MS. Acute models of EAE allow faster experimentation and observation, whereas chronic models allow wider observation, such as preventive versus therapeutic treatments.
Seven week-old C57 black/6N female mice were immunized with an emulsion of mycobacterium tubercolosis and the peptide spanning the sequence 35aa-55aa of the myelin oligodendrocyte glycoprotein (MOG) dissolved in phosphate buffer and Freud adjuvant. Mice were injected subcutaneously, in three different sites, with a total of 0.3 ml of emulsion. Immediately after the immunization mice were injected intravenously with 0.1 ml of pertussin toxin ([…]). […]
Starting from day 10 after the immunization mice were evaluated daily for weight loss and locomotive defects. […]

SMILES | CRC efficacy [1] | also measured
O=C1C=C(c2ccc(F)cc2)C(=O)N1c1cccc(Cl)c1 [Example 2, 1-(3-chlorophenyl)-3-(4-fluorophenyl)-pyrrole-2,5-dione] | 2.5 | –
O=C1C=C(c2cccc(F)c2)C(=O)N1c1cccc(Cl)c1 [Example 9, 1-(3-chlorophenyl)-3-(3-fluorophenyl)-pyrrole-2,5-dione] | 2.75 | –
O=C1C=C(c2cccc(F)c2)C(=O)N1c1ccc(F)c(Cl)c1 [Example 10, 1-(3-chloro-4-fluorophenyl)-3-(3-fluorophenyl)-pyrrole-2,5-dione] | 2.27 | –
O=C1C=C(c2ccccc2F)C(=O)N1c1cccc(Cl)c1 [Example 13, 1-(3-chlorophenyl)-3-(2-fluorophenyl)-pyrrole-2,5-dione] | 2 | –
O=C1C=C(c2ccccc2F)C(=O)N1c1ccc(F)c(Cl)c1 [Example 14, 1-(3-chloro-4-fluorophenyl)-3-(2-fluorophenyl)-pyrrole-2,5-dione] | 2.22 | –
O=C1C=C(c2ccccc2)C(=O)N1c1cccc(Br)c1 [Example 20, 1-(3-bromophenyl)-3-phenyl-pyrrole-2,5-dione] | 2.33 | –
Cc1cccc(N2C(=O)C=C(c3ccccc3)C2=O)c1 [Example 22, 1-(3-methylphenyl)-3-phenyl-pyrrole-2,5-dione] | 2.57 | –
O=C1C=C(c2ccccc2)C(=O)N1c1cccc(C(F)(F)F)c1 [Example 31, 1-(3-trifluoromethylphenyl)-3-phenyl-pyrrole-2,5-dione] | 2 | –
O=C1C=C(c2ccc(O)cc2)C(=O)N1c1cccc(Cl)c1 [Example 36, 1-(3-chlorophenyl)-3-(4-hydroxyphenyl)-pyrrole-2,5-dione] | 1.87 | –
COc1ccc(C2=CC(=O)N(c3cccc(Cl)c3)C2=O)cc1 [Example 48, 1-(3-chlorophenyl)-3-(4-methoxyphenyl)-pyrrole-2,5-dione] | 2.11 | –
Cc1cccc(N2C(=O)C=C(c3ccc(Cl)cc3)C2=O)c1 [Example 53, 1-(3-methylphenyl)-3-(4-chlorophenyl)-pyrrole-2,5-dione] | 2.17 | –
O=C1C=C(c2ccc(Cl)cc2)C(=O)N1c1cccc(Cl)c1 [Example 55, 1-(3-chlorophenyl)-3-(4-chlorophenyl)-pyrrole-2,5-dione] | 2.33 | –
Cc1ccc(C2=CC(=O)N(c3cccc(Cl)c3)C2=O)cc1 [Example 57, 1-(3-chlorophenyl)-3-(4-methylphenyl)-pyrrole-2,5-dione] | 2.66 | –
COc1ccc(Cl)cc1N1C(=O)C=C(c2ccccc2)C1=O [Example 58, 1-(5-chloro-2-methoxyphenyl)-3-phenyl-pyrrole-2,5-dione] | 1.86 | –
O=C1C=C(c2ccccc2)C(=O)N1c1ccc(F)c(Cl)c1 [Example 61, 1-(3-chloro-4-fluorophenyl)-3-phenyl-pyrrole-2,5-dione] | 2.83 | –
O=C1C=C(c2ccccc2)C(=O)N1c1cccc(Cl)c1 [Example 63, 1-(3-chlorophenyl)-3-phenyl-pyrrole-2,5-dione] | 2.5 | neovascularization, fluorangiographic analysis ([2]; intravitreal injection at P12, approximately 1 or 2 or 4 microM in the vitreum, analysis at p17, vs DMSO vehicle): significant reduction; number of endothelial cells present in the eye (per section) ([2]; intravitreal injection at P12, eyes at p17, hematoxylin and eosin sections, FIG. 1): significantly reduces; treated mice developing inferior limb paresis after 20 days ([3]; 5 mg/kg intraperitoneally every day from day 4, approximately 30% of the untreated EAE mice developed it): no one; development of the disease (average clinical score, non parametric scale 0-5) ([3]; C57 black/6N female mice, MOG 35-55 immunization, 5 mg/kg intraperitoneally every day from day 4, FIG. 2): significantly prevented
